Test results published in patent publication US11357760B2, “Method of treating liver fibrosis” (ChemoCentryx, Inc., priority 2016, dated 2022).

Tests used:
[1] = test system: MCD-induced NASH model; experiment: Methionine-choline deficient (MCD) induced NASH model; format: in vivo, mice C57Bl/6; details: Compound 1 subcutaneously, CVC orally; for serum ALT levels: FIG. 5; for trough drug level: 30 mg/kg
Description: (§1) Compound 1 was administered subcutaneously to maintain high systemic levels. […] Formalin-fixed, paraffin-embedded liver sections were stained separately with hematoxylin & eosin (H&E) and for Sirius red Picrosirius red (#365548, Sigma) and evaluated for severity of liver fibrosis. All pathologic evaluations were made by a pathologist on a random and blinded basis. Collagen surface density was quantified using Image J (NIH). Two Sirius red-stained slides per animal were taken at different depth, with 18 images taken randomly per slide for a total of 36 images per animal for collagen quantification. Liver enzymes were assayed by Antech GLP (Morrisville, N.C.). Insulin was measured with Ultrasensitive. Mouse Insulin ELISA kit (Crystal Chem Inc: #90080); Blood glucose and insulin levels were determined after an overnight fast (14-16 h). Insulin sensitivity was determined by the homeostatic model assessment of insulin resistance (HOMA-IR). Lipids were measured in the serum and liver with a Triglyceride Colorimetric Assay kit (Cayman Chemical Company: #10010303), a Free Fatty Acid Quantification kit, (Abcam, ab65341) and Cholesterol Quantification kit (Abcam, ab65359).

[2] = target: CCR5 (Homo sapiens, UniProt P51681); details: summary of Table 1
Description: A conventional migration assay was used to determine the efficacy of potential receptor antagonists in blocking migration mediated through MIP1b. This assay was routinely performed using the ChemoTX® (Neuroprobe) microchamber system with a 5-mum pore-sized polycarbonate membrane. CCR5 expressing cells (IL-2 Lymphocytes or L1.2CCR5 cells) were harvested by centrifugation of cell suspension at 1000 RPM on a GS-6R Beckman centrifuge. […] An equal volume of cells and compounds were mixed and incubated at room temperature for 15 minutes. Afterwards, 20 μl of the mixture was transferred onto the porous membrane of a migration microchamber, with 29 μl of MIP1b ligand (0.1 nM MIP1b protein) placed at the lower chamber. Following incubation at 37 degrees centigrade (90-minute), the assay was terminated by removing the cell drops from atop the filter. To quantify cells migrated across the membrane, 5 mul_ of 7× CyQUANT® (ThermoFisher) solution was added to each well in the lower chamber, and the fluorescence signal measured on a Spectrafluor Plus fluorescence plate reader (TECAN, Durham, N.C.). The degree of inhibition was determined by comparing migration signals between compound-treated and untreated cells. IC50 calculation was further performed by non-linear squares regression analysis using Graphpad Prism (Graphpad Software, San Diego, Calif.).

[3] = test system: HFD/fructose-induced NASH model; experiment: High fat diet (HFD)/fructose-induced NASH model; format: in vivo, mice C57Bl/6; details: 30 mg/kg subcutaneously once per day for 8 weeks
Text: as §1, with “Male wild-type (WT) mice C57Bl/6 were obtained from Jackson Laboratory and fed either with high-fat diet (D12492, 60 Cal % fat, Research Diets, New Brunswick, N.J.) with 30% fructose in the drink water or a lean control diet (D12450B, 10 Cal % fat, Research Diets) at 6-8 week of age and maintained on the respective diet for the duration of the study (16-32 weeks). […] Sirius red-staining” for “Compound 1”, “used” for “administered subcutaneously”, “evaluate the severity of liver fibrosis.” for “maintain high systemic levels.”

CCR5, sequence (P51681 whole entry, species assumed): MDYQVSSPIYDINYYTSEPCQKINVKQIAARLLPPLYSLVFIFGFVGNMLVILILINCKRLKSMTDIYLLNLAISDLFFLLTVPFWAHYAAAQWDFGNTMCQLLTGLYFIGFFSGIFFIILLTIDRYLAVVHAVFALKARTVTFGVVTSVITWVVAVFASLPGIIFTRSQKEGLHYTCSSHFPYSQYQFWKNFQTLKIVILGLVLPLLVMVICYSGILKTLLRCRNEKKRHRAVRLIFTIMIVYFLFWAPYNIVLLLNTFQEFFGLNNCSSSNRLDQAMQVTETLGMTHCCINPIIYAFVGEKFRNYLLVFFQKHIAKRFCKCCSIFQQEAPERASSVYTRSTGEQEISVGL

Row | Compound | serum ALT levels ([1]; 30 mg/kg for 8 weeks) | trough drug level [1] | CCR5 inhibition (in words) [2] | Sirius red-positive staining (liver fibrosis) ([1]; 30 mg/kg for 8 weeks, FIG. 6) | change in body weight compared to vehicle ([3]; FIG. 1) | serum ALT levels ([3]; FIG. 2) | serum AST levels ([3]; FIG. 2) | percentage of Sirius red staining (liver fibrosis) compared to vehicle ([3]; FIG. 4)
1 | CCCCOCCOc1ccc(-c2ccc3c(c2)/C=C(/C(=O)Nc2ccc([S@@+]([O-])Cc4cncn4CCC)cc2)CCCN3CC(C)C)cc1 [CVC, cenicriviroc, reference compound] | does not | over IC50 | potent CCR5 inhibitor |  |  |  |  | 
2 | Cc1cnc(C(=O)c2ccnc3[nH]ccc23)c(NS(=O)(=O)c2ccc(Cl)c(C(F)(F)F)c2)c1 [Compound 1] | significantly reduces | over IC50 |  | reduces | did not change | reduced | reduced | reduced
